Test results as given in US20050197356A1, “Non-immunosuppressive immunophilin ligands as neuroprotective and/or neuroregenerative agents” (Wyeth, priority 2004, published 2005).

Tests used:
Type in all cases: cell-based, rat
[1] = test system: cultured dopaminergic neurons; assay: High-affinity 3H-dopamine uptake after MPP+ induced toxicity in mesencephalic dopaminergic neuron cultures
Procedure: Mesencephalic dopaminergic neuron cultures were prepared as previously described in Pong et al., J Neurochem. 69: 986-994 (1997). Embryonic day 15 (E15) rat fetuses were collected and dissected in ice-cold phosphate-buffered saline (PBS). The ventral piece of tissue compromising the mesencephalic dopaminergic region was dissected out. Dissected pieces of tissue were pooled together and transferred to an enzymatic dissociation medium containing 20 IU/ml papain in Earle's balanced salt solution (Worthington Biochemical, Freehold, N.J., U.S.A.) and incubated for 60 minutes at 37° C. After enzymatic dissociation, the papain solution was aspirated and the tissue mechanically triturated with a fire-polished glass Pasteur pipette in complete medium [equal volumes of minimum essential medium (MEM) and F-12 nutrient mixture (Gibco BRL) supplemented with 0.1 mg/ml apotransferrin and 2.5 μg/ml insulin] containing 2,000 IU/ml DNase and 10 mg/ml ovomucoid protease inhibitor.
For dopamine uptake experiments, single-cell suspensions in complete media were seeded on poly-L-ornithine and laminin coated 24-well plates. The cultures were maintained for seven days prior to experimentation. Cultures were pretreated with various concentrations of the compound of formula (I) (washed with PBS and diluted with media to concentrations of 1 nM to 1000 nM) for 24 hours, then exposed to 10 μM the neurotoxin 1-methyl-4-phenylpyridinium (MPP^+) for 1 hour to assess the neuroprotective effect of the compound of formula (I) in cell culture. Following the 1 hour incubation, media was exchanged three times and fresh compound was added for an additional 48 hours.
More particularly, after 48 hours growth of mesencephalic dopaminergic neuron cultures following MPP^+ exposure, high-affinity ^3H-dopamine uptake was performed using a modified method described by Prochiantz et al., Nature 293: 570-572 (1981). Cultures were washed with pre-warmed phosphate-buffered saline (PBS) containing 5.6 mM glucose and 1 mM ascorbic acid. Cultures were then incubated for 15 minutes at 37° C. with 50 nM ^3H-dopamine (31 Ci/mmol, Du Pont-NEN, Wilmington, Del., U.S.A.). The cultures were washed twice with buffer and lysed with 0.5 N NaOH. The lysate was transferred to a scintillation vial containing Ultima Gold scintillation cocktail and radioactivity was determined with a liquid scintillation counter. Alternatively, culture lysates can be washed twice with buffer, incubated for 2 hours at room temperature with Optiphase Supermix scintillation cocktail (Wallac Scintillation Products, Gaithersburg, Md., USA), and radioactivity measured with a liquid scintillation counter.
MPP^+-induced neurotoxicity in a ^3H-dopamine uptake cell assay was measured. Neuroprotective effects in cell culture were measured by addition of the compound (1 nM to 1000 nM) to the culture in the presence of MPP.

[2] = test system: cultured dorsal root ganglia; assay: Neurite outgrowth (ENO algorithm, Cellomics ArrayScan) in cultured dorsal root ganglia; conditions: 72 hours
Procedure: Dissociated dorsal root ganglia cultures were prepared as previously described [A. Wood et al., “Stimulation of neurite outgrowth by immunophilin ligands: quantitative analysis by Cellomics Array scan” Society for Neuroscience (2004), abstract 104.3] Briefly, postnatal day 3-5 rat pups were euthanized. The spinal columns were removed and individual dorsal root ganglia (DRG) were dissected out. Dissected DRG were pooled together and transferred to an enzymatic dissociation medium containing papain. After 60 minutes, the tissue was mechanically triturated with a fire-polished glass Pasteur pipette. Single-cell suspensions in complete media were seeded on poly-L-ornithine and laminin coated 96-well plates. After 24 hours, cultures were treated with various concentrations of the compound of formula I for 72 hours. The cultures were then fixed and stained with an anti-tubulin primary antibody (TUJ-1) and a fluorescent-tagged secondary antibody. Neurite outgrowth was determined by using the Enhanced Neurite Outgrowth (ENO) algorithm with the Cellomics ArrayScan and expressed as total neurite length per cell.

[3] = test system: cultured cortical neurons; assay: Neurofilament content in cultured cortical neurons (neurofilament antibody, colorimetric); conditions: 72 hours
Procedure: (§1) Dissociated cortical neuron cultures were prepared as previously described [Pong et al., Exp Neurol. 2001 September; 171(1):84-97 (2001)]. Briefly, embryonic day 15 rat fetuses were collected and dissected in ice-cold PBS. Dissected cortices were pooled together and transferred to an enzymatic dissociation medium containing papain. After 30 min, the tissue was mechanically triturated with a fire-polished glass Pasteur pipette. Single-cell suspensions in complete media were seeded on poly-L-ornithine and laminin coated 96-well plates. 24 hours later, cultures were treated with various concentrations of compound of formula (I) for 72 hours. The cultures were then fixed and stained with a neurofilament primary antibody and a peroxidase-tagged secondary antibody. A peroxidase substrate (K-Blue Max) was added and the colorimetric change was measure on a colorimetric plate reader.
as §1, with “(Pong” for “[Pong”, “2001).” for “Exp Neurol. 2001 September; 171(1):84-97 (2001)].”, “ploy-L-ornithine” for “poly-L-ornithine”, “compound” for “compound of formula (I)”, “calorimetric” for “colorimetric”

[4] = test system: cultured cortical neurons; assay: Neurite outgrowth (ENO algorithm, Cellomics ArrayScan) in cultured cortical neurons; conditions: 72 hours
Procedure: Dissociated cortical neuron cultures were prepared as previously described (Pong et al., cited above, 2001). Briefly, embryonic day 15 rat fetuses were collected and dissected in ice-cold PBS. Dissected cortices were pooled together and transferred to an enzymatic dissociation medium containing papain. After 30 minutes, the tissue was mechanically triturated with a fire-polished glass Pasteur pipette. Single-cell suspensions in complete media were seeded on poly-L-ornithine and laminin coated 96-well plates. After 24 hours, cultures were treated with various concentrations of the compound of formula I for 72 hours. The cultures were then fixed and stained with an anti-tubulin primary antibody (TUJ-1) and a fluorescent-tagged secondary antibody. Neurite outgrowth was determined by using the Enhanced Neurite Outgrowth (ENO) algorithm with the Cellomics ArrayScan and expressed as total neurite length per cell.

## C[n+]1ccc(-c2ccccc2)cc1 [MPP^+, 1-methyl-4-phenylpyridinium, reference compound]
[1]; 10 uM MPP+ alone, 1 hour exposure, uptake 48 hours later
  3H-DOPAMINE UPTAKE (% UNTREATED CONTROL): 40%

## CC/C1=C\CC(/C(C)=C/C(C)C(C)O)OC(=O)C2CCCCN2C(=O)C(=O)C2(O)OC(CCC2C)CC(O)C(C)C(O)CC(O)CC(O)/C(C)=C/C(C)CC(C)C1O (centres unmarked) [meridamycin]
[2]; 10 nM
  Total Neurite Length (% Above Control): 4%
[2]; 100 nM
  Total Neurite Length (% Above Control): 9%
[2]; 1 μM
  Total Neurite Length (% Above Control): 14%
[2]; 10 μM
  Total Neurite Length (% Above Control): 24%
[3]; 10 nM meridamycin
  NEUROFILAMENT CONTENT (FOLD-INCREASE ABOVE UNTREATED CONTROL): 1.71 fold
[3]; 100 nM meridamycin
  NEUROFILAMENT CONTENT (FOLD-INCREASE ABOVE UNTREATED CONTROL): 2.24 fold
[3]; 1 μM meridamycin
  NEUROFILAMENT CONTENT (FOLD-INCREASE ABOVE UNTREATED CONTROL): 2.32 fold
[3]; 10 μM meridamycin
  NEUROFILAMENT CONTENT (FOLD-INCREASE ABOVE UNTREATED CONTROL): 2.56 fold
[3]; Rattus norvegicus, Cortical neurone, cultured cortical neurons, read-out: EC50 of increased neuronal survival (neurofilament content)
  EC50: 12 nM
[1]; 1 nM meridamycin, 24 h pretreatment, 10 uM MPP+ 1 h, compound further 48 h
  3H-DOPAMINE UPTAKE (% UNTREATED CONTROL): 47%
[1]; 10 nM meridamycin, 24 h pretreatment, 10 uM MPP+ 1 h, compound further 48 h
  3H-DOPAMINE UPTAKE (% UNTREATED CONTROL): 51%
[1]; 100 nM meridamycin, 24 h pretreatment, 10 uM MPP+ 1 h, compound further 48 h
  3H-DOPAMINE UPTAKE (% UNTREATED CONTROL): 51%
[1]; 1000 Nm meridamycin, 24 h pretreatment, 10 uM MPP+ 1 h, compound further 48 h
  3H-DOPAMINE UPTAKE (% UNTREATED CONTROL): 64%
[1]; Rattus norvegicus, Neuron, relative to maximum protection (84% uptake) afforded by 10 ng/mL GDNF, read-out: EC50 of neuroprotection against MPP+-induced neurotoxicity
  EC50: 555 nM
[4]; 10 nM
  Total Neurite Length (% Above Control): 19%
[4]; 100 nM
  Total Neurite Length (% Above Control): 40%
[4]; 1 μM
  Total Neurite Length (% Above Control): 113%
[4]; 10 μM
  Total Neurite Length (% Above Control): 152%

B1: GDNF: GDNF, 10 ng/mL, positive control that afforded maximum protection (protein, UniProt P39905 78-211, looked up)
Glial cell line-derived …: SPDKQMAVLPRRERNRQAAAANPENSRGKGRRGQRGKNRGCVLTAIHLNVTDLGLGYETKEELIFRYCSGSCDAAETTYDKILKNLSRNRRLVSDKVGQACCRPIAFDDDLSFLDDNLVYHILRKHSAKRCGCI
[1]; 10 ng/mL GDNF, MPP+-induced neurotoxicity
  maximum protection (3H-dopamine uptake): 84%
